Species on record: Rattus norvegicus
Assay: Open TG-GATES - Regimen: Daily Repeat
Type: toxicity, organism-based, Sprague-Dawley
Set-up: regimen Daily Repeat, gender Male, age 6 weeks
Conditions: in vivo, po, route gavage; for APTT / Bas / Eos / Fbg / Hb / Ht / Lym / MCH / MCHC / MCV / Mono / Neu / PT / Plat / RBC / Ret / WBC: tissue Blood; for KIDNEY_L / KIDNEY_R / KIDNEY_TOTAL: tissue Kidney; for LIVER: tissue Liver; for ALP / ALT / BUN / CRE / Ca / DBIL / GLC / K / LDH / Na / PL / RALB / TBIL / TC / TG / TP / gamma-GTP / AST: tissue Plasma
[1] = 60 mg/kg, 72 h, dose level Middle, time 3 day
[2] = 60 mg/kg, […], dose level Middle, time 7 day
[3] = 60 mg/kg, […], dose level Middle, time 14 day
[4] = 60 mg/kg, […], dose level Middle, time 28 day
[5] = 200 mg/kg, 72 h, dose level High, time 3 day
[6] = 200 mg/kg, […], dose level High, time 7 day
[7] = 200 mg/kg, […], dose level High, time 14 day
[8] = 200 mg/kg, […], dose level High, time 28 day

Compound: CCCCc1oc2ccccc2c1C(=O)c1cc(I)c(OCCN(CC)CC)c(I)c1 [AMIODARONE]
- TERMINAL_BW [1]: 226.1 g
- APTT [1]: 18.2 s
- Bas [1]: 0%
- Eos [1]: 1.2%
- Fbg [1]: 225.8 mg/dL
- Hb [1]: 13.5 g/dL
- Ht [1]: 39.6%
- Lym [1]: 79.2%
- MCH [1]: 21.1 pg
- MCHC [1]: 34.1%
- MCV [1]: 62.1 fL
- Mono [1]: 2.6%
- Neu [1]: 15.8%
- PT [1]: 12.8 s
- Plat [1]: 127.1 x10_4/uL
- RBC [1]: 637.8 x10_4/ul
- Ret [1]: 5.5%
- WBC [1]: 99.3 x10_2/uL
- KIDNEY_L [1]: 1 g
- KIDNEY_R [1]: 1 g
- KIDNEY_TOTAL [1]: 2.1 g
- LIVER [1]: 11 g
- ALP [1]: 1120.2 IU/L
- ALT [1]: 37.8 IU/L
- BUN [1]: 16 mg/dL
- CRE [1]: 0.3 mg/dL
- Ca [1]: 10.7 mg/dL
- DBIL [1]: 0.096 mg/dL
- GLC [1]: 196.6 mg/dL
- K [1]: 3.8 meq/L
- LDH [1]: 194.6 IU/L
- Na [1]: 140.8 meq/L
- PL [1]: 147 mg/dL
- RALB [1]: 3.4 g/dL
- TBIL [1]: 0.1 mg/dL
- TC [1]: 73.8 mg/dL
- TG [1]: 101.8 mg/dL
- TP [1]: 5.5 g/dL
- gamma-GTP [1]: 1 IU/L
- TERMINAL_BW [2]: 259.8 g
- TERMINAL_BW [3]: 302.6 g
- TERMINAL_BW [4]: 385.9 g
- APTT [2]: 17.9 s
- Bas [2]: 0%
- Eos [2]: 1%
- Fbg [2]: 216.8 mg/dL
- Hb [2]: 13 g/dL
- Lym [2]: 76.2%
- MCH [2]: 20.9 pg
- MCHC [2]: 34.1%
- Mono [2]: 3.2%
- Neu [2]: 18.6%
- PT [2]: 12.3 s
- Plat [2]: 132.6 x10_4/uL
- RBC [2]: 622.6 x10_4/ul
- Ret [2]: 5.4%
- WBC [2]: 103.2 x10_2/uL
- APTT [3]: 20.8 s
- Bas [3]: 0%
- Eos [3]: 0.4%
- Fbg [3]: 214.4 mg/dL
- Hb [3]: 14.4 g/dL
- Ht [3]: 41.1%
- Lym [3]: 79%
- MCH [3]: 20.9 pg
- MCHC [3]: 35%
- MCV [3]: 59.7 fL
- Mono [3]: 2.2%
- Neu [3]: 17.4%
- Plat [3]: 115.4 x10_4/uL
- RBC [3]: 688.2 x10_4/ul
- Ret [3]: 4.3%
- WBC [3]: 115.1 x10_2/uL
- APTT [4]: 20.6 s
- Bas [4]: 0%
- Eos [4]: 1%
- Fbg [4]: 218.6 mg/dL
- Ht [4]: 42.1%
- Lym [4]: 78.2%
- MCH [4]: 19.7 pg
- MCHC [4]: 35%
- MCV [4]: 56.3 fL
- Mono [4]: 2.6%
- Neu [4]: 17%
- Plat [4]: 111.2 x10_4/uL
- RBC [4]: 748.8 x10_4/ul
- Ret [4]: 2.8%
- WBC [4]: 115.2 x10_2/uL
- KIDNEY_L [2]: 1.2 g
- KIDNEY_R [2]: 1.1 g
- KIDNEY_TOTAL [2]: 2.3 g
- KIDNEY_L [3]: 1.2 g
- KIDNEY_R [3]: 1.2 g
- KIDNEY_TOTAL [3]: 2.3 g
- KIDNEY_L [4]: 1.3 g
- KIDNEY_R [4]: 1.3 g
- KIDNEY_TOTAL [4]: 2.7 g
- LIVER [3]: 13.8 g
- LIVER [4]: 16.9 g
- ALP [2]: 981 IU/L
- ALT [2]: 34.8 IU/L
- AST [2]: 60 IU/L
- BUN [2]: 17.4 mg/dL
- CRE [2]: 0.3 mg/dL
- Ca [2]: 10.5 mg/dL
- DBIL [2]: 0.1 mg/dL
- GLC [2]: 208 mg/dL
- K [2]: 4 meq/L
- LDH [2]: 174.8 IU/L
- Na [2]: 140.2 meq/L
- PL [2]: 166.8 mg/dL
- RALB [2]: 3.3 g/dL
- TBIL [2]: 0.2 mg/dL
- TC [2]: 90.8 mg/dL
- TG [2]: 98.6 mg/dL
- TP [2]: 5.5 g/dL
- gamma-GTP [2]: 0.8 IU/L
- ALP [3]: 996.2 IU/L
- ALT [3]: 41.4 IU/L
- AST [3]: 64.6 IU/L
- BUN [3]: 16.6 mg/dL
- CRE [3]: 0.4 mg/dL
- Ca [3]: 10.6 mg/dL
- DBIL [3]: 0.086 mg/dL
- GLC [3]: 224.6 mg/dL
- K [3]: 3.5 meq/L
- LDH [3]: 174.6 IU/L
- Na [3]: 140.4 meq/L
- PL [3]: 171.6 mg/dL
- RALB [3]: 3.4 g/dL
- TBIL [3]: 0.1 mg/dL
- TC [3]: 90.4 mg/dL
- TG [3]: 102 mg/dL
- TP [3]: 5.9 g/dL
- gamma-GTP [3]: 1.8 IU/L
- ALP [4]: 803.2 IU/L
- ALT [4]: 34.4 IU/L
- AST [4]: 56.4 IU/L
- BUN [4]: 18 mg/dL
- CRE [4]: 0.5 mg/dL
- Ca [4]: 10.4 mg/dL
- DBIL [4]: 0.098 mg/dL
- GLC [4]: 192.6 mg/dL
- K [4]: 3.7 meq/L
- LDH [4]: 152.6 IU/L
- Na [4]: 141 meq/L
- PL [4]: 167.2 mg/dL
- RALB [4]: 3.3 g/dL
- TBIL [4]: 0.2 mg/dL
- TC [4]: 86.6 mg/dL
- TG [4]: 120 mg/dL
- TP [4]: 6 g/dL
- gamma-GTP [4]: 1.6 IU/L
- TERMINAL_BW [5]: 204.2 g
- APTT [5]: 27.3 s
- Bas [5]: 0%
- Eos [5]: 1.2%
- Fbg [5]: 214.6 mg/dL
- Hb [5]: 14.1 g/dL
- Ht [5]: 40.9%
- Lym [5]: 84.6%
- MCH [5]: 20.9 pg
- MCHC [5]: 34.4%
- MCV [5]: 60.8 fL
- Mono [5]: 3.2%
- Neu [5]: 9.2%
- PT [5]: 15.9 s
- Plat [5]: 122.1 x10_4/uL
- RBC [5]: 672.8 x10_4/ul
- Ret [5]: 3.5%
- WBC [5]: 70.5 x10_2/uL
- KIDNEY_L [5]: 0.9 g
- KIDNEY_R [5]: 0.9 g
- KIDNEY_TOTAL [5]: 1.8 g
- LIVER [5]: 9 g
- ALP [5]: 1623.2 IU/L
- BUN [5]: 14.2 mg/dL
- CRE [5]: 0.3 mg/dL
- Ca [5]: 10 mg/dL
- DBIL [5]: 0.062 mg/dL
- GLC [5]: 193.2 mg/dL
- K [5]: 3.6 meq/L
- LDH [5]: 222.2 IU/L
- Na [5]: 140.2 meq/L
- PL [5]: 181.6 mg/dL
- RALB [5]: 3.4 g/dL
- TBIL [5]: 0.1 mg/dL
- TC [5]: 135 mg/dL
- TG [5]: 33.2 mg/dL
- TP [5]: 5.7 g/dL
- gamma-GTP [5]: 0.8 IU/L
- TERMINAL_BW [6]: 210.1 g
- TERMINAL_BW [7]: 194.8 g
- TERMINAL_BW [8]: 228 g
- APTT [6]: 33.7 s
- Bas [6]: 0%
- Eos [6]: 0.8%
- Fbg [6]: 202.2 mg/dL
- Hb [6]: 14.6 g/dL
- Ht [6]: 41.9%
- Lym [6]: 82.8%
- MCH [6]: 21.2 pg
- MCHC [6]: 34.9%
- MCV [6]: 60.7 fL
- Mono [6]: 2.6%
- Neu [6]: 13.2%
- PT [6]: 17.5 s
- Plat [6]: 127 x10_4/uL
- RBC [6]: 690.2 x10_4/ul
- Ret [6]: 1.4%
- WBC [6]: 119 x10_2/uL
- APTT [7]: 26.9 s
- Bas [7]: 0%
- Eos [7]: 0.8%
- Fbg [7]: 180.2 mg/dL
- Hb [7]: 16 g/dL
- Ht [7]: 44.7%
- Lym [7]: 68%
- MCH [7]: 20 pg
- MCHC [7]: 35.9%
- MCV [7]: 55.6 fL
- Mono [7]: 1.6%
- Neu [7]: 29.6%
- PT [7]: 15 s
- Plat [7]: 109.5 x10_4/uL
- RBC [7]: 803.6 x10_4/ul
- Ret [7]: 0.8%
- WBC [7]: 77.9 x10_2/uL
- APTT [8]: 27.4 s
- Bas [8]: 0%
- Eos [8]: 0.8%
- Fbg [8]: 215.8 mg/dL
- Hb [8]: 15.6 g/dL
- Ht [8]: 42.8%
- Lym [8]: 64%
- MCH [8]: 19 pg
- MCHC [8]: 36.4%
- MCV [8]: 52.2 fL
- Mono [8]: 2%
- Neu [8]: 32%
- PT [8]: 17 s
- Plat [8]: 159.1 x10_4/uL
- RBC [8]: 819 x10_4/ul
- Ret [8]: 2.1%
- WBC [8]: 96 x10_2/uL
- KIDNEY_L [6]: 0.9 g
- KIDNEY_R [6]: 0.9 g
- KIDNEY_TOTAL [6]: 1.9 g
- KIDNEY_L [7]: 0.9 g
- KIDNEY_R [7]: 0.9 g
- KIDNEY_TOTAL [7]: 1.7 g
- KIDNEY_L [8]: 0.9 g
- KIDNEY_R [8]: 1 g
- KIDNEY_TOTAL [8]: 1.9 g
- LIVER [6]: 9.6 g
- LIVER [7]: 9.1 g
- ALP [6]: 1316.2 IU/L
- ALT [6]: 31 IU/L
- AST [6]: 56.4 IU/L
- BUN [6]: 13.6 mg/dL
- CRE [6]: 0.4 mg/dL
- Ca [6]: 10 mg/dL
- DBIL [6]: 0.068 mg/dL
- GLC [6]: 184.4 mg/dL
- K [6]: 4 meq/L
- LDH [6]: 215.6 IU/L
- Na [6]: 139.2 meq/L
- PL [6]: 182.8 mg/dL
- RALB [6]: 3.4 g/dL
- TBIL [6]: 0.1 mg/dL
- TC [6]: 144.8 mg/dL
- TG [6]: 24.6 mg/dL
- TP [6]: 5.8 g/dL
- gamma-GTP [6]: 1.2 IU/L
- ALP [7]: 1457.8 IU/L
- ALT [7]: 44.8 IU/L
- AST [7]: 59.8 IU/L
- BUN [7]: 16.6 mg/dL
- CRE [7]: 0.5 mg/dL
- Ca [7]: 9.6 mg/dL
- DBIL [7]: 0.064 mg/dL
- GLC [7]: 200.8 mg/dL
- K [7]: 3.6 meq/L
- LDH [7]: 176.6 IU/L
- Na [7]: 139.4 meq/L
- PL [7]: 190.4 mg/dL
- RALB [7]: 3.4 g/dL
- TBIL [7]: 0.1 mg/dL
- TC [7]: 163.4 mg/dL
- TP [7]: 5.7 g/dL
- gamma-GTP [7]: 1.6 IU/L
- ALP [8]: 1315 IU/L
- ALT [8]: 39.8 IU/L
- AST [8]: 82 IU/L
- BUN [8]: 15.5 mg/dL
- CRE [8]: 0.5 mg/dL
- Ca [8]: 9.4 mg/dL
- DBIL [8]: 0.065 mg/dL
- GLC [8]: 169 mg/dL
- K [8]: 3.9 meq/L
- LDH [8]: 184 IU/L
- Na [8]: 139.8 meq/L
- PL [8]: 177 mg/dL
- RALB [8]: 3.3 g/dL
- TBIL [8]: 0.1 mg/dL
- TC [8]: 127.5 mg/dL
- TG [8]: 26.5 mg/dL
- TP [8]: 5.8 g/dL
- gamma-GTP [8]: 1.2 IU/L

— ChEMBL document CHEMBL3885861, “Open TG-GATES”
